The source of these data is patent EP0263202A1, “Inhibition of viral protease activity by peptide halomethyl ketones” (priority 1986, dated 1988).

Residues, ends and D or L forms follow the SMILES beside them.

Data set [1] has as its system human HeLa-O cells. Type of data set: cell-based. The method, then: (§1) One assay, known as a viral cleavage assay, involves comparison of patterns of protein synthesis (as visualized by incorporation of labeled amino acids) in virus-infected HeLa cells grown in the presence and absence of a selected test compound. A second assay, known as a plaque inhibition assay, involves an assessment of the effects of test compounds upon the infectivity of virus in agar-overlaid cell cultures. Toxic effects of a test compound, if any, will also be observed during the incubation period of the plaque inhibition assay. Both assays are described in greater detail below.
When plaques in control cultures were large enough to be observed, yet still relatively discrete, all cultures were stained with 1% crystal violet. Plaques appeared as clear areas in a deep purple field of uninfected cells.

Data set [2] has as its system rhinovirus type 1A. As to the kind of experiment: plaque inhibition assay. Type of data set: cell-based, Human rhinovirus type 1A. The settings on record: HeLa cells, concentration at which activity was noted. How it is done:
as §1
In this assay, cultured HeLa cells were grown to confluency in 60 mm plastic petri dishes. Each culture was then infected with approximately 300 plaque-forming units of virus. Human rhinovirus type 1A was used in the test reported below. The virus employed in this experiment was allowed to absorb to the cells for 30 minutes at 34.5°.
The compound tested was dissolved in ethanol at a concentration 100 times greater than the highest concentration to be tested. The resulting solution was then diluted 1:100 into a solution of McCoy's medium containing 5% heat-inactivated fetal calf serum and 0.38% agar. Two-fold dilutions were then made into agar medium. […]

Data set [3] deals with subtilisin BPNʹ. The settings on record: ranking among a series of peptide chloromethyl ketones; cited from earlier work.

In the case of `CC(C)C[C@H](NC(=O)[C@H](CC(C)C)NC(=O)CNC(=O)[C@H](Cc1ccccc1)NC(=O)OCc1ccccc1)C(=O)CCl` [Z-Phe-Gly-Leu-LeuCH₂Cl, N-carbobenzoxy-L-phenylalanyl-L-glycyl-L-leucyl-L-leucine chloromethyl ketone] (HELM PEPTIDE1{[O=C(OCc1ccccc1)[*:2]].F.G.L.L.[ClC[*:1]]}$$$$V2.0), in data set [1], the “cytotoxicity first detected at a concentration” value is given as “about 15 µg/mL”. In data set [2], the “Antiviral activity, as scored by 90% plaque reduction” value turned out to be 1 µg/mL.
On to “acetyl-L-phenyl-alanyl-L-glycyl-L-alanyl-L-leucyl chloromethyl ketone (FGAL; HELM PEPTIDE1{[ac].F.G.A.L.[ClC[*:1]]}$$$$V2.0; SMILES CC(=O)N[C@@H](Cc1ccccc1)C(=O)NCC(=O)N[C@@H](C)C(=O)N[C@@H](CC(C)C)C(=O)CCl) [Ac-Phe-Gly-Ala-LeuCH₂Cl]”, for which, in data set [3], the “inhibition of subtilisin BPNʹ” value is reported as “fastest inhibitor”.
